Reference: PubChem BioAssay (NCI)
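Cells were grown in 96-well plates and exposed to each compound for 48 hours at five concentrations; endpoints were interpolated linearly between bracketing concentrations, or set to the highest concentration if not reached. TGI marks complete inhibition of growth.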

Experiments:
Assay in all cases: NCI tumour cell line growth inhibition, 48 h
A498 renal = test system: A498 renal
A549 NSCLC = test system: A549 NSCLC
CAKI-1 renal = test system: CAKI-1 renal
CCRF-CEM leukemia = test system: CCRF-CEM leukemia
COLO 205 colon = test system: COLO 205 colon
DLD-1 colon = test system: DLD-1 colon
DMS 114 small cell lung = test system: DMS 114 small cell lung
DMS 273 small cell lung = test system: DMS 273 small cell lung
EKVX NSCLC = test system: EKVX NSCLC
HCC-2998 colon = test system: HCC-2998 colon
HCT-116 colon = test system: HCT-116 colon
HCT-15 colon = test system: HCT-15 colon
HL-60(TB) leukemia = test system: HL-60(TB) leukemia
HOP-18 NSCLC = test system: HOP-18 NSCLC
HOP-62 NSCLC = test system: HOP-62 NSCLC
HOP-92 NSCLC = test system: HOP-92 NSCLC
HT29 colon = test system: HT29 colon
IGROV1 ovarian = test system: IGROV1 ovarian
K-562 leukemia = test system: K-562 leukemia
KM12 colon = test system: KM12 colon
KM20L2 colon = test system: KM20L2 colon
LOX IMVI melanoma = test system: LOX IMVI melanoma
M19-MEL melanoma = test system: M19-MEL melanoma
MALME-3M melanoma = test system: MALME-3M melanoma
MCF7 breast = test system: MCF7 breast
MOLT-4 leukemia = test system: MOLT-4 leukemia
NCI-H226 lung = test system: NCI-H226 lung
NCI-H23 lung = test system: NCI-H23 lung
NCI-H460 lung = test system: NCI-H460 lung
NCI-H522 lung = test system: NCI-H522 lung
NCI/ADR-RES ovarian = test system: NCI/ADR-RES ovarian
OVCAR-3 ovarian = test system: OVCAR-3 ovarian
OVCAR-4 ovarian = test system: OVCAR-4 ovarian
OVCAR-5 ovarian = test system: OVCAR-5 ovarian
OVCAR-8 ovarian = test system: OVCAR-8 ovarian
P388 leukemia = test system: P388 leukemia
P388/ADR leukemia = test system: P388/ADR leukemia
RPMI-8226 leukemia = test system: RPMI-8226 leukemia
RXF 393 renal = test system: RXF 393 renal
SF-268 CNS = test system: SF-268 CNS
SF-295 CNS = test system: SF-295 CNS
SF-539 CNS = test system: SF-539 CNS
SK-MEL-2 melanoma = test system: SK-MEL-2 melanoma
SK-MEL-28 melanoma = test system: SK-MEL-28 melanoma
SK-MEL-5 melanoma = test system: SK-MEL-5 melanoma
SK-OV-3 ovarian = test system: SK-OV-3 ovarian
SN12C renal = test system: SN12C renal
SN12K1 renal = test system: SN12K1 renal
SNB-19 CNS = test system: SNB-19 CNS
SNB-75 CNS = test system: SNB-75 CNS
SNB-78 CNS = test system: SNB-78 CNS
SW-620 colon = test system: SW-620 colon
U251 CNS = test system: U251 CNS
UACC-257 melanoma = test system: UACC-257 melanoma
UACC-62 melanoma = test system: UACC-62 melanoma
UO-31 renal = test system: UO-31 renal
XF 498 CNS = test system: XF 498 CNS
786-0 renal = test system: 786-0 renal
ACHN renal = test system: ACHN renal
LXFL 529 NSCLC = test system: LXFL 529 NSCLC
M14 melanoma = test system: M14 melanoma
RXF-631 renal = test system: RXF-631 renal
SR leukemia = test system: SR leukemia
TK-10 renal = test system: TK-10 renal

CCCNC1=C(C)C(=O)C2=C(C1=O)[C@H](COC(N)=O)[C@]1(OC)[C@@H]3N[C@@H]3CN21
TGI (A498 renal): 13.6 µM
TGI (A549 NSCLC): 8.69 µM
TGI (CAKI-1 renal): 84.5 µM
TGI (CCRF-CEM leukemia): 185 µM
TGI (COLO 205 colon): 45 µM
TGI (DLD-1 colon): 79.9 µM
TGI (DMS 114 small cell lung): 59 µM
TGI (DMS 273 small cell lung): 15.8 µM
TGI (EKVX NSCLC): 27.4 µM
TGI (HCC-2998 colon): 20.6 µM
TGI (HCT-116 colon): 32.2 µM
TGI (HCT-15 colon): 72 µM
TGI (HL-60(TB) leukemia): 19.4 µM
TGI (HOP-18 NSCLC): 53.4 µM
TGI (HOP-62 NSCLC): 4.42 µM
TGI (HOP-92 NSCLC): 43.9 µM
TGI (HT29 colon): 94.3 µM
TGI (IGROV1 ovarian): 33.3 µM
TGI (K-562 leukemia): 174 µM
TGI (KM12 colon): 56.1 µM
TGI (KM20L2 colon): 121 µM
TGI (LOX IMVI melanoma): 19.1 µM
TGI (M19-MEL melanoma): 27.3 µM
TGI (MALME-3M melanoma): 26.5 µM
TGI (MCF7 breast): 4.15 µM
TGI (MOLT-4 leukemia): 31.3 µM
TGI (NCI-H226 lung): 34 µM
TGI (NCI-H23 lung): 12.5 µM
TGI (NCI-H460 lung): 4.17 µM
TGI (NCI-H522 lung): 12.5 µM
TGI (NCI/ADR-RES ovarian): 300 µM
TGI (OVCAR-3 ovarian): 55.3 µM
TGI (OVCAR-4 ovarian): 19.3 µM
TGI (OVCAR-5 ovarian): 92.4 µM
TGI (OVCAR-8 ovarian): 53 µM
TGI (P388 leukemia): 39.2 µM
TGI (P388/ADR leukemia): 54.7 µM
TGI (RPMI-8226 leukemia): 73.9 µM
TGI (RXF 393 renal): 46.4 µM
TGI (SF-268 CNS): 77.9 µM
TGI (SF-295 CNS): 39.7 µM
TGI (SF-539 CNS): 45.3 µM
TGI (SK-MEL-2 melanoma): 34.3 µM
TGI (SK-MEL-28 melanoma): 87.8 µM
TGI (SK-MEL-5 melanoma): 2.65 µM
TGI (SK-OV-3 ovarian): 170 µM
TGI (SN12C renal): 69.2 µM
TGI (SN12K1 renal): 44.1 µM
TGI (SNB-19 CNS): 45.4 µM
TGI (SNB-75 CNS): 24.6 µM
TGI (SNB-78 CNS): 158 µM
TGI (SW-620 colon): 113 µM
TGI (U251 CNS): 40.6 µM
TGI (UACC-257 melanoma): 38.9 µM
TGI (UACC-62 melanoma): 5.74 µM
TGI (UO-31 renal): 67.3 µM
TGI (XF 498 CNS): 15.3 µM

COc1cc([C@@H]2c3cc4c(c(O[C@@H]5O[C@H]6CO[C@@H](C)O[C@H]6[C@H](O)[C@@H]5O)c3C[C@H]3COC(=O)[C@@H]32)OCO4)cc(OC)c1O
TGI (A498 renal): > 100 µM
TGI (A549 NSCLC): > 100 µM
TGI (CCRF-CEM leukemia): > 100 µM
TGI (COLO 205 colon): > 100 µM
TGI (DLD-1 colon): > 100 µM
TGI (DMS 114 small cell lung): > 31.1 µM
TGI (DMS 273 small cell lung): > 100 µM
TGI (EKVX NSCLC): > 100 µM
TGI (HCC-2998 colon): > 81.1 µM
TGI (HCT-116 colon): > 44.6 µM
TGI (HCT-15 colon): > 100 µM
TGI (HL-60(TB) leukemia): > 38.9 µM
TGI (HOP-18 NSCLC): > 100 µM
TGI (HOP-62 NSCLC): > 100 µM
TGI (HOP-92 NSCLC): > 100 µM
TGI (HT29 colon): > 100 µM
TGI (IGROV1 ovarian): > 100 µM
TGI (K-562 leukemia): > 100 µM
TGI (KM12 colon): > 79.6 µM
TGI (KM20L2 colon): > 100 µM
TGI (LOX IMVI melanoma): > 100 µM
TGI (M19-MEL melanoma): > 100 µM
TGI (MALME-3M melanoma): > 100 µM
TGI (MCF7 breast): > 100 µM
TGI (MOLT-4 leukemia): > 100 µM
TGI (NCI-H226 lung): 20.8 µM
TGI (NCI-H23 lung): > 100 µM
TGI (NCI-H460 lung): > 100 µM
TGI (NCI-H522 lung): 6.42 µM
TGI (NCI/ADR-RES ovarian): 37.1 µM
TGI (OVCAR-3 ovarian): 20.6 µM
TGI (OVCAR-4 ovarian): > 53.3 µM
TGI (OVCAR-5 ovarian): > 100 µM
TGI (OVCAR-8 ovarian): > 100 µM
TGI (P388 leukemia): 4.82 µM
TGI (RPMI-8226 leukemia): > 100 µM
TGI (RXF 393 renal): > 100 µM
TGI (SF-268 CNS): > 79.5 µM
TGI (SF-295 CNS): 22.5 µM
TGI (SF-539 CNS): 7.79 µM
TGI (SK-MEL-2 melanoma): > 100 µM
TGI (SK-MEL-28 melanoma): > 100 µM
TGI (SK-MEL-5 melanoma): > 100 µM
TGI (SK-OV-3 ovarian): > 92.9 µM
TGI (SN12C renal): > 100 µM
TGI (SN12K1 renal): > 45.1 µM
TGI (SNB-19 CNS): > 100 µM
TGI (SNB-75 CNS): > 100 µM
TGI (SNB-78 CNS): > 100 µM
TGI (SW-620 colon): > 100 µM
TGI (U251 CNS): > 46.8 µM
TGI (UACC-257 melanoma): > 100 µM
TGI (UACC-62 melanoma): > 100 µM
TGI (UO-31 renal): > 100 µM
TGI (XF 498 CNS): > 100 µM

O=C(O)/C=C\C(=O)c1ccc(Cl)cc1
TGI (786-0 renal): > 78.7 µM
TGI (A498 renal): > 100 µM
TGI (A549 NSCLC): > 100 µM
TGI (ACHN renal): 73.3 µM
TGI (CAKI-1 renal): 47.2 µM
TGI (CCRF-CEM leukemia): 48.7 µM
TGI (COLO 205 colon): 34.9 µM
TGI (DLD-1 colon): > 100 µM
TGI (DMS 114 small cell lung): 55.4 µM
TGI (DMS 273 small cell lung): > 31.6 µM
TGI (EKVX NSCLC): > 94 µM
TGI (HCC-2998 colon): > 100 µM
TGI (HCT-116 colon): > 58.8 µM
TGI (HCT-15 colon): 50.2 µM
TGI (HL-60(TB) leukemia): 58.5 µM
TGI (HOP-18 NSCLC): > 100 µM
TGI (HOP-62 NSCLC): > 100 µM
TGI (HOP-92 NSCLC): 47.8 µM
TGI (HT29 colon): > 64.9 µM
TGI (IGROV1 ovarian): > 100 µM
TGI (K-562 leukemia): 82.8 µM
TGI (KM12 colon): 98.9 µM
TGI (KM20L2 colon): > 74.7 µM
TGI (LOX IMVI melanoma): > 61.7 µM
TGI (LXFL 529 NSCLC): 48.4 µM
TGI (M14 melanoma): 33.2 µM
TGI (M19-MEL melanoma): 55.8 µM
TGI (MALME-3M melanoma): 34.5 µM
TGI (MOLT-4 leukemia): 49 µM
TGI (NCI-H226 lung): > 87.6 µM
TGI (NCI-H23 lung): > 86.7 µM
TGI (NCI-H460 lung): > 100 µM
TGI (NCI-H522 lung): > 100 µM
TGI (OVCAR-3 ovarian): > 73.3 µM
TGI (OVCAR-4 ovarian): > 100 µM
TGI (OVCAR-5 ovarian): > 100 µM
TGI (OVCAR-8 ovarian): > 100 µM
TGI (RPMI-8226 leukemia): 66.7 µM
TGI (RXF 393 renal): 40.5 µM
TGI (RXF-631 renal): > 100 µM
TGI (SF-268 CNS): > 71.1 µM
TGI (SF-295 CNS): > 100 µM
TGI (SF-539 CNS): 54.2 µM
TGI (SK-MEL-2 melanoma): > 76.8 µM
TGI (SK-MEL-28 melanoma): 34.7 µM
TGI (SK-MEL-5 melanoma): > 100 µM
TGI (SK-OV-3 ovarian): > 100 µM
TGI (SN12C renal): > 100 µM
TGI (SNB-19 CNS): > 100 µM
TGI (SNB-75 CNS): > 79 µM
TGI (SNB-78 CNS): > 100 µM
TGI (SR leukemia): 52.2 µM
TGI (SW-620 colon): 50.1 µM
TGI (TK-10 renal): > 100 µM
TGI (U251 CNS): > 100 µM
TGI (UACC-257 melanoma): 38 µM
TGI (UACC-62 melanoma): > 75.4 µM
TGI (UO-31 renal): 99.8 µM
TGI (XF 498 CNS): > 76.6 µM
